Data as given in BindingDB's records for doi:10.1016/j.bmcl.2018.10.045 (Merck, 2019).

Columns and labels:
[1] = Inhibition of NS5B polymerase in HCV genotype 1b infected in HuH7 cells after 40 hrs by Taqman probe based RT-PCR analysis
[2] = Inhibition of NS5B polymerase S365A mutant in HCV genotype 1A infected in HuH7 cells after 40 hrs by Taqman probe based RT-PCR analysis
[3] = Inhibition of NS5B polymerase E1202G/T1280I/S2197P mutant in HCV genotype 1a infected in human HuH7 replicon cells after 72 hrs in presence of 10% FBS by luciferase-based reporter assay
[4] = Inhibition of NS5B polymerase E1202G/T1280I/S2197P mutant in HCV genotype 1b infected in human HuH7 replicon cells after 72 hrs in presence of 50% human serum by luciferase-based reporter assay
[5] = Inhibition of NS5B polymerase in HCV genotype 2A infected in HuH7 cells after 40 hrs by Taqman probe based RT-PCR analysis
[6] = Inhibition of NS5B polymerase E1202G/T1280I/S2197P mutant in HCV genotype 2a infected in human HuH7 replicon cells after 72 hrs in presence of 10% FBS by luciferase-based reporter assay
[7] = Inhibition of NS5B polymerase C316Y mutant in HCV genotype 1A infected in HuH7 cells after 40 hrs by Taqman probe based RT-PCR analysis
[8] = Inhibition of NS5B polymerase in HCV genotype 1a infected in HuH7 cells after 40 hrs by Taqman probe based RT-PCR analysis
[9] = Inhibition of NS5B polymerase E1202G/T1280I/S2197P mutant in HCV genotype 1b infected in human HuH7 replicon cells after 72 hrs in presence of 10% FBS by luciferase-based reporter assay
[10] = Inhibition of NS5B polymerase in HCV genotype 3A infected in HuH7 cells after 40 hrs by Taqman probe based RT-PCR analysis
[11] = Inhibition of NS5B polymerase in HCV genotype 2B infected in HuH7 cells after 40 hrs by Taqman probe based RT-PCR analysis
[12] = Inhibition of NS5B polymerase in HCV genotype 4A infected in HuH7 cells after 40 hrs by Taqman probe based RT-PCR analysis

CNC(=O)c1c(-c2ccc(F)cc2)oc2cc(N(C)S(C)(=O)=O)c(-c3ccc4c(n3)-c3cc5c(F)cccc5n3CN4)cc12
EC50 [1]: 1.8 nM
EC50 [2]: 3.1 nM
EC50 [3]: 5.3 nM
EC50 [4]: 46 nM
EC50 [5]: 5.7 nM
EC50 [6]: 6.4 nM
EC50 [7]: 7.6 nM
EC50 [8]: 0.9 nM
EC50 [9]: 5.3 nM
EC50 [10]: 1 nM
EC50 [11]: 2.9 nM
EC50 [12]: 1.1 nM

CNC(=O)c1c(-c2ccc(F)cc2)oc2cc(N(C)S(C)(=O)=O)c(-c3ccc4c(n3)-c3cc5c(F)cccc5n3CCC4)cc12 [US9243002, 72]
EC50 [1]: 1.9 nM
EC50 [2]: 16 nM
EC50 [5]: 6.8 nM
EC50 [7]: 26 nM
EC50 [8]: 1.1 nM
EC50 [10]: 1.2 nM
EC50 [11]: 6.5 nM
EC50 [12]: 1.5 nM

CNC(=O)c1c(-c2ccc(F)cc2)oc2cc(N(C)S(C)(=O)=O)c(-c3ccc4c(n3)-c3cc5c(F)cccc5n3CC4)cc12 [US9243002, 85]
EC50 [1]: 2.1 nM
EC50 [2]: 6.5 nM
EC50 [3]: 3 nM
EC50 [4]: 13 nM
EC50 [5]: 6 nM
EC50 [6]: 5.7 nM
EC50 [7]: 8.4 nM
EC50 [8]: 0.86 nM
EC50 [9]: 3.3 nM
EC50 [10]: 1.1 nM
EC50 [11]: 2.7 nM
EC50 [12]: 1.2 nM

CNC(=O)c1c(-c2ccc(F)cc2)oc2cc(N(C)S(C)(=O)=O)c(-c3ccc4c(n3)-c3cc5c(F)cccc5n3C4)cc12 [US9243002, 88]
EC50 [1]: 5.1 nM
EC50 [2]: 34 nM
EC50 [5]: 8.5 nM
EC50 [7]: 9.5 nM
EC50 [8]: 2.2 nM
EC50 [10]: 3 nM
EC50 [11]: 3.9 nM
EC50 [12]: 2.7 nM

CNC(=O)c1c(-c2ccc(F)cc2)oc2cc(N(C)S(C)(=O)=O)c(-c3ccc4ncn5c6cccc(F)c6cc5c4n3)cc12
EC50 [1]: 1.4 nM
EC50 [2]: 1 nM
EC50 [3]: 2 nM
EC50 [4]: 16 nM
EC50 [5]: 3.4 nM
EC50 [6]: 3.3 nM
EC50 [7]: 3.1 nM
EC50 [8]: 0.68 nM
EC50 [9]: 3.2 nM
EC50 [10]: 1 nM
EC50 [11]: 2.4 nM
EC50 [12]: 0.63 nM

CNC(=O)c1c(-c2ccc(F)cc2)oc2cc(N(C)S(C)(=O)=O)c(-c3cc4n(c(=O)c3)CCn3c-4cc4c(F)cccc43)cc12
EC50 [1]: 1.3 nM
EC50 [2]: 6.4 nM
EC50 [5]: 11 nM
EC50 [7]: 9.8 nM
EC50 [8]: 0.61 nM
EC50 [10]: 0.62 nM
EC50 [11]: 2.2 nM
EC50 [12]: 1.5 nM

CNC(=O)c1c(-c2ccc(F)cc2)oc2cc(N(C)S(C)(=O)=O)c(-c3ccc4c(n3)-c3cc5c(F)cccc5n3CCCC4)cc12 [US9243002, 99]
EC50 [1]: 5.2 nM
EC50 [2]: 42 nM
EC50 [5]: 26 nM
EC50 [7]: 13 nM
EC50 [8]: 2 nM
EC50 [10]: 1.9 nM
EC50 [11]: 3.8 nM
EC50 [12]: 3.5 nM

CNC(=O)c1c(-c2ccc(F)cc2)oc2cc(N(C)S(C)(=O)=O)c(-c3ccc4ccn5c6cccc(F)c6cc5c4n3)cc12 [US9243002, 82]
EC50 [1]: 2.6 nM
EC50 [2]: 4.8 nM
EC50 [3]: 2.9 nM
EC50 [4]: 30 nM
EC50 [5]: 6.7 nM
EC50 [6]: 6.3 nM
EC50 [7]: 11 nM
EC50 [8]: 0.95 nM
EC50 [9]: 5.5 nM
EC50 [10]: 1.2 nM
EC50 [11]: 3.5 nM
EC50 [12]: 1.2 nM
